Measurements from patent US7884117B2, “Carbonylamino pyrrolopyrazoles, potent kinase inhibitors” (Pfizer Inc., priority 2005, dated 2011).
Values joined by “and” are separate entries in the source; they are usually repeats but may differ in a detail not shown here. Equal entries are not always repeated. “Also recorded” adds a separate entry of the source.

Legend:
[1] = molecular target: T1, PAK4 kinase activity in whole cells (TR-293-KDG, modified HEK 293) (Homo sapiens, UniProt O96013); assay: PAK4 cellular assay: sandwich ELISA of PAK4-dependent phosphorylation of GEF-H1b in TR-293-KDG cells; assay type: cell-based; conditions: 3-hour exposure
T1 construct: engineered to overexpress both GEF-H1b and the kinase domain (KD) of PAK4; expressed in transfected cells; host or cells: TR-293-KDG (modified HEK 293, Trex system, Invitrogen)
T1 sequence (O96013 321-572 limits assumed): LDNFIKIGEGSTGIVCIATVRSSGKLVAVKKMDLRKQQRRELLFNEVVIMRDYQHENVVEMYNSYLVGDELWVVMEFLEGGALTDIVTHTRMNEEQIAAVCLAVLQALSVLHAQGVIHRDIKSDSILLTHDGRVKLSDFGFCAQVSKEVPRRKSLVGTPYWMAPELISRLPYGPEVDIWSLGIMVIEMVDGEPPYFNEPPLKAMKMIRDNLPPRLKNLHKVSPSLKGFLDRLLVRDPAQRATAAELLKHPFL
Protocol: A sandwich ELISA method was used to measure the PAK4 kinase activity in whole cells. The level of PAK4-dependent phosphorylation of GEF-H1b can be determined by monitoring the binding of a phosphospecific antibody to GEF-H1b. […] The KD of PAK4 is inducible in this cell line by tetracycline (Trex system, Invitrogen). […] To establish a phosphorylation event on GEF-HL, cells are induced with doxycycline to express the PAK4 KD. […] Candidate substance effect is measured as the ability to block this phosphorylation event.
ELISA plate was prepared by pre-coating the plates with a capture antibody (α-HA-tag mouse monoclonal antibody), blocked with BSA, and washed in 0.1% tween 20 in tris-buffered saline (TBST). […] Cells were then lysed with a modified RIPA buffer supplemented with protease inhibitors. […] Between all subsequent steps plates were washed 4 times with TBST. Detection antibody (recognizing the phospho-specific eptitope on GEF-H1b) was added for 1 hour, followed by addition of an enzyme linked goat α-rabbit secondary antibody for 45 minutes. […] EC50 values were calculated by sigmoid curve fitting using a four-parameter analysis.

[2] = molecular target: T2, PAK4 Kinase domain (PAK4 KD) (Homo sapiens, UniProt O96013); assay: PAK4 kinase domain enzymatic assay (PK/LDH-coupled, Ki); assay type: biochemical; conditions: PAK4 Kinase Domain
T2 construct: Cloning, expression, and purification of recombinant PAK4 Kinase domain (PAK4 KD); His tag (pET28a(+)/pET24a(+), Ni-NTA purification) (N, cleaved yes); GST (pGST4.5, glutathione column) (N, cleaved yes); made in house; host or cells: E. coli BL21(DE3)
T2 sequence (O96013 321-572 limits assumed): as above

[3] = tested on: HCT116 human colorectal carcinoma tumor xenografts; assay: Tumor growth inhibition and tumor growth delay of HCT116 xenografts in athymic mice; assay type: in vivo; conditions: for Tumor growth inhibition (TGI) % TGImax d39 / Tumor growth delay T-C1250 mm3: oral gavage; for Tumor growth inhibition (TGI) % TGImax d39: day 39, vs vehicle; for Tumor growth delay T-C1250 mm3: evaluation size 1250 mm3
Protocol: Material and preparation: The HCT116 cell line was obtained from American Type Culture Collection (ATCC, Bethesda, Md.). Cells were grown as monolayers in McCoy's media each supplemented with 10% FBS (each from Life Technologies, Inc., Bethesda, Md.) and maintained at 37° C. in a humidified atmosphere at 5% CO2. Tumor cells for implantation into athymic mice were harvested near confluence by incubation with 0.05% Trypsin-EDTA. Cells were pelleted at 450×g for 5-10 minutes and the cell pellets were re-suspended in serum-free McCoy's medium supplemented with 50% matrigel. Tumor cells (1×10^6 cells/animal) were implanted s.c. into the hindflank region of each mouse on day 0 and allowed to grow to the designated size prior to the administration of compound for each experiment.
Tumor growth inhibition: Treatment was initiated when tumors were approximately 200 mm3 in size. Compound of Example 2 or vehicle (methyl cellulose, MC) was administered as an oral gavage daily or every other day at 10 mL/kg. Tumors were measured using Vernier calipers, and tumor volumes were calculated utilizing the formula length×width2×0.4. Tumor volume was measured on the indicated days, with the median tumor volume indicated for each group of 12 animals; median±SEM. At the end of the study, the maximum percent tumor growth inhibition was calculated as 100×(tumor volumefinal−tumor volumeinitial) for Compound 1f Example 2-treated group/(tumor volumefinal−tumor volumeinitial) for vehicle group on day 39 and tumor growth delay was calculated as median […] when median tumor volume reached 1250 mm^3.
Tumor growth delay: Treatment with Compound of Example 2 began on day 11 when tumors reached a volume of ˜200 mm^3 and continued for 28 days until the control tumors reached evaluation size (1250 mm^3). Tumor measurement continued until treated tumors reached evaluation size (1250 mm^3) in order to assess tumor growth delay. Compound of Example 2 was administered to tumor-bearing mice by oral gavage as a solution in MC in 10 mL/kg volume and compared with vehicle alone administered in the same volume.

**Q.** Which EC50 [1] does the source give for `CN(C)C[C@@H](OC(=O)N1Cc2c(NC(=O)c3ccc(F)cc3)n[nH]c2C1(C)C)c1ccccc1` [Example 2, (1S)-2-(dimethylamino)-1-phenylethyl 3-[(4-fluorobenzoyl)amino]-6,6-dimethyl-4,6-dihydropyrrolo[3,4-c]pyrazole-5(1H)-carboxylate] here?
**A.** Its EC50 is 9.7 nM.

**Q.** What about the Ki [2] of the same compound?
**A.** Its Ki is 16.7 nM.

**Q.** And the “Tumor growth inhibition (TGI) % TGImax d39” value ([3]; 50 mg/kg QD)?
**A.** Its value is 50%.

**Q.** And the “Tumor growth delay T-C1250 mm3” value ([3]; 50 mg/kg QD)?
**A.** Its value is 12.2 days.

**Q.** What about the “Tumor growth inhibition (TGI) % TGImax d39” value ([3]; 75 mg/Kg/QOD) of the same compound?
**A.** Its value is 37% and 36.6%.

**Q.** What about the “Tumor growth delay T-C1250 mm3” value ([3]; 75 mg/Kg/QOD) of the same compound?
**A.** Its value is 9.8 days.

**Q.** And the “in vivo tumor growth inhibition/delay (in words)” value ([3]; HCT116 xenografts in athymic mice, oral)?
**A.** Its value is “showed in vivo tumor growth inhibition; also recorded: inhibited/delayed growth”.

**Q.** What about the “general health and body weight of treated mice” value ([3]; throughout the 28 day treatment cycle, oral) of the same compound?
**A.** Its value is “generally appeared healthy and continued to gain weight”.

**Q.** With `CC(C)C[C@@H](CN(C)C)OC(=O)N1Cc2c(NC(=O)c3ccc(C(F)(F)F)cc3)n[nH]c2C1(C)C` [Example 79, (1S)-1-[(dimethylamino)methyl]-3-methylbutyl 6,6-dimethyl-3-{[4-(trifluoromethyl)benzoyl]amino}-4,6-dihydropyrrolo[3,4-c]pyrazole-5(1H)-carboxylate] as the compound, how does the EC50 [1] read?
**A.** Its EC50 is 2120 nM.

**Q.** What about the Ki [2] of the same compound?
**A.** Its Ki is 96 nM.

**Q.** Which results are given for `CC1(C)c2[nH]nc(NC(=O)c3cccs3)c2CN1C(=O)N[C@H](CO)c1ccccc1` [Example 100, N-[(1S)-2-hydroxy-1-phenylethyl]-6,6-dimethyl-3-[(2-thienylcarbonyl)amino]-4,6-dihydropyrrolo[3,4-c]pyrazole-5(1H)-carboxamide]?
**A.** EC50 [1]: 178 nM; Ki [2]: 108 nM
